Data from patent US20220096650A1 (Glaxosmithkline Intellectual Property Development Limited, priority 2019, published 2022).

Columns and labels:
[1] = system: CD4 and CD8 T cells in PBMC; test: PBMC T cell activation assay (anti-CD3/anti-CD28 stimulation), activation markers by flow cytometry; assay type: cell-based, human; conditions: 24 and 72 hrs, 30, 3 and 0.3 μg/mL
From the text: T cells can be activated through the engagement of the T cell receptor (TCR) and co-stimulatory molecules expressed on the cell surface. […] Furthermore, upon activation, T cells produce cytokines such as IFNγ and IL-4. The effect of BCMA ADC on IFNγ and IL-4 productions in stimulated T cells was also studied. These experiments can provide data on the effect of BCMA ADC on T cells activation and function. In addition, proliferation of human CD4+ and CD8+ T cells upon stimulation in the presence of BCMA ADC was also evaluated. Human blood was obtained from the blood donor procurement program at GlaxoSmithKline. Peripheral blood mononuclear cells (PBMCs) were isolated from human whole blood by Ficoll density gradient centrifugation (GE Healthcare). Anti-human CD3 antibody (eBioscience, catalog #16-0037-85, clone OKT3) diluted with coating buffer (Biolegend, catalog #421701) was coated on 96 well flat-bottom plate overnight.
In this study, BCMA ADC treatment and PBMC activation occurred concurrently and the effects were monitored at 24 and 72 hrs. […] Immunofluorescence analysis was performed on a FACS CANTO II flow cytometer (BD Biosciences) and analyzed with DIVA software (BD Biosciences). Flow cytometry was used to monitor the percentage of CD4 or CD8 cells that express a given marker, and the mean fluorescence intensity (MFI) of this maker in CD4 or CD8 cells. […]

[2] = system: Dendritic cells co-cultured with BCMA ADC treated NCI-H929 cells; test: IL-10 and IL-12p70 in co-culture supernatants (MSD kits); assay type: cell-based, human
Procedure: Day 7 iDCs were co-cultured with J6M0 ADC enhanced antigen binding protein treated NCI-H929 cells at 1:1 ratio for 24 hours on 96 well plates. All cells were counted at the initiation of the co-culture and diluted with X-Vivo-15 media to a concentration of 7.5×10^5 cells/mL. 7.5×10^4 cells/well (100 μl) each of iDCS and pre-treated NCI-H929 cells were combined in each well on a 96 well plate. Co-cultured cells were incubated 37° C./5% CO2 for 24 hours. A flow cytometry panel consisting of CD1a, CD11c, CD40, CD80, CD83, CD86, HLA-DR, & CD14 was used to assess fresh, FcR blocked Dendritic Cell differentiation and maturation on the FACS Canto II. […]
Data analysis was performed in Flow Jo v7.6.5 for the flow cytometry panel and used either CD11c+ or HLA-DR+ cell gating to distinguish the dendritic Cells from the tumor cells. […] Data for the secreted IL-10 and IL-12p70 from supernatants in the co-culture assays w analyzed in MSD Discovery Workbench v4.0.12.
FIGS. 3A and 3B: IL-10 decreased in the supernatants from co-cultured Dendritic cells from two healthy human donors and BCMA ADC treated NCI-H929 Multiple Myeloma cells. IL-10 was measured in (a) untreated (no BCMA ADC) Dendritic cells alone and (b-f) Dendritic cells that were co-cultured with (b) untreated (no BCMA ADC), (c) IgG Control (10 μg/mL), (d) 0.1, (e) 1 and (f) 10 μg/mL BCMA ADC treated (48 hours) NCI-H929 cells. […]

Substance: GSK2857916
- effect on anti-CD3/anti-CD28 stimulated CD4 and CD8 T cell activation [1]: minimal effect
- IL-10 production ([2]; 0.1, 1, 10 μg/mL BCMA ADC): significant inhibitory effect
- IL-12p70 ([2]; all conditions): below the detection limit
